Columns and labels:
[1] = system: pigweed; assay: Test C preemergence; assay type: in vivo, Amaranthus retroflexus; details: for Pigweed plant response rating: preemergence; for Plant response rating, Pigweed: Preemergence, 31 g ai/ha, scale 0 to 100, 0 no effect, 100 complete control
Method in brief: (§1)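 Greenhouse herbicide screen. Pre: seeded loam/sand, sprayed at planting. Post: 1–4 leaf plants (2–18 cm) in peat-based mix. Formulation: solvent mixture + surfactant, non-phytotoxic. Readout: visual % control vs untreated, 13–15 d; dash = not tested.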

[2] = system: morningglory; assay: Test C preemergence; assay type: in vivo, Ipomoea coccinea; details: for Morningglory plant response rating: preemergence; for Plant response rating, Morningglory: Preemergence, 31 g ai/ha, scale 0 to 100, 0 no effect, 100 complete control
Method in brief: as §1

[3] = system: soybean; assay: Test C preemergence; assay type: in vivo, Glycine max; details: for Soybean plant response rating: preemergence; for Plant response rating, Soybean: Preemergence, 31 g ai/ha, scale 0 to 100, 0 no effect, 100 complete control
Method in brief: as §1

[4] = system: yellow nutsedge; assay: Test C postemergence; assay type: in vivo, Cyperus esculentus; details: for Plant response rating, Nutsedge, Yellow: scale 0 to 100 (0 no effect, 100 complete control)
Method in brief: as §1

[5] = system: wheat, winter; assay: Test C postemergence; assay type: in vivo, Triticum aestivum; details: for Plant response rating, Wheat: scale 0 to 100 (0 no effect, 100 complete control)
Method in brief: as §1

[6] = system: chickweed; assay: Test C postemergence; assay type: in vivo, Stellaria media
Method in brief: as §1

[7] = system: yellow nutsedge; assay: Test C preemergence; assay type: in vivo, Cyperus esculentus; details: for Nutsedge, Yellow plant response rating: preemergence; for Plant response rating, Nutsedge, Yellow: Preemergence, 31 g ai/ha, scale 0 to 100, 0 no effect, 100 complete control
Method in brief: as §1

[8] = system: blackgrass; assay: Test C postemergence; assay type: in vivo, Alopecurus myosuroides
Method in brief: as §1

[9] = system: Italian ryegrass; assay: Test C preemergence; assay type: in vivo, Lolium multiflorum; details: for Ryegrass, Italian plant response rating: preemergence; for Plant response rating, Ryegrass, Italian: Preemergence, 31 g ai/ha, scale 0 to 100, 0 no effect, 100 complete control
Method in brief: as §1

[10] = system: pigweed; assay: Test A preemergence; assay type: in vivo, Amaranthus retroflexus; details: for Plant response rating, Pigweed: 125 g ai/ha; for Pigweed plant response rating: 500 g ai/ha
Method in brief: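 Visual 0–100 rating (100 = complete control) taken about 10 d post-treatment relative to untreated checks. Preemergence: directed soil spray on sown loam/sand pots. Postemergence: seedlings 2–10 cm, 1–2 leaf. Non-phytotoxic solvent formulation with surfactant.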

[11] = system: barnyardgrass; assay: Test C postemergence; assay type: in vivo, Echinochloa crus-galli
Method in brief: as §1

[12] = system: wild oat; assay: Test C postemergence; assay type: in vivo, Avena fatua; details: for Plant response rating, Oat, Wild: scale 0 to 100 (0 no effect, 100 complete control)
Method in brief: as §1

[13] = system: corn; assay: Test C postemergence; assay type: in vivo, Zea mays
Method in brief: as §1

[14] = system: ragweed; assay: Test C preemergence; assay type: in vivo, Ambrosia elatior; details: for Ragweed plant response rating: preemergence; for Plant response rating, Ragweed: Preemergence, 31 g ai/ha, scale 0 to 100, 0 no effect, 100 complete control
Method in brief: as §1

[15] = system: giant foxtail; assay: Test C postemergence; assay type: in vivo, Setaria faberii
Method in brief: as §1

[16] = system: blackgrass; assay: Test C preemergence; assay type: in vivo, Alopecurus myosuroides; details: for Blackgrass plant response rating: preemergence; for Plant response rating, Blackgrass: Preemergence, 31 g ai/ha, scale 0 to 100, 0 no effect, 100 complete control
Method in brief: as §1

[17] = 16 g ai/ha, scale 0 to 100 (0 no effect, 100 complete control)
[18] = 62 g ai/ha, scale 0 (no effect) to 100 (complete control)
[19] = 125 g ai/ha, scale 0 (no effect) to 100 (complete control)
[20] = 16 g ai/ha, postemergence, 0 is no effect, 100 is complete control
[21] = 125 g ai/ha, postemergence, visual rating
[22] = 125 g ai/ha, postemergence, visual rating, scale 0 to 100 (0 no effect, 100 complete control)
[23] = Postemergence, 62 g ai/ha, scale 0 to 100 (0 no effect, 100 complete control)
[24] = Postemergence, 31 g ai/ha, scale 0 to 100 (0 no effect, 100 complete control), 13 to 15 days
[25] = 0 to 100 scale where 0 is no effect and 100 is complete control
[26] = Postemergence, 31 g ai/ha, 13 to 15 days
[27] = 16 g ai/ha, postemergence, visual rating, scale 0 to 100 (0 no effect, 100 complete control), 13 to 15 days

In the case of `Clc1cnc(Oc2cccc(Br)c2-n2cc(Br)nn2)nc1` [Compound 129], the “Pigweed plant response rating” value [1, 17] was 98, the “Pigweed plant response rating” value [1, 18] was 100 and the “Pigweed plant response rating” value [1, 19] was 100. The “Plant response rating, Pigweed” value [1] was 100, the “Morningglory plant response rating” value [2, 17] was 5 and the “Morningglory plant response rating” value [2, 18] was 45. For the same molecule, the “Morningglory plant response rating” value [2, 19] was 75, the “Plant response rating, Morningglory” value [2] was 35 and the “Soybean plant response rating” value [3, 17] was 10. For the same molecule, the “Soybean plant response rating” value [3, 18] was 40, the “Soybean plant response rating” value [3, 19] was 80 and the “Plant response rating, Soybean” value [3] was 10. For the same molecule, the “Plant response rating (0 to 100), Nutsedge, Yellow” value [4, 20] was 0, the “Plant response rating, Nutsedge, Yellow” value [4, 21] was 10 and the “Plant response rating, Nutsedge, Yellow” value ([4]; Postemergence, 62 g ai/ha) was 5. For the same molecule, the “Plant response rating (0 to 100), Wheat” value [5, 20] was 0, the “Plant response rating, Wheat” value [5, 21] was 5 and the “Plant response rating, Wheat” value ([5]; Postemergence, 62 g ai/ha) was 0. For the same molecule, the “Plant response rating (0 to 100), Chickweed” value [6, 20] was 50, the “Plant response rating, Chickweed” value [6, 22] was 55 and the “Plant response rating, Chickweed” value [6, 23] was 70. The “Nutsedge, Yellow plant response rating” value [7, 17] was 0, the “Nutsedge, Yellow plant response rating” value [7, 18] was 5 and the “Nutsedge, Yellow plant response rating” value [7, 19] was 25. The “Plant response rating, Nutsedge, Yellow” value [7] was 0, the “Plant response rating (0 to 100), Blackgrass” value [8, 20] was 5 and the “Plant response rating, Blackgrass” value [8, 22] was 10. The “Plant response rating, Blackgrass” value [8, 24] was 5, the “Plant response rating, Blackgrass” value [8, 23] was 5 and the “Ryegrass, Italian plant response rating” value [9, 17] was 0. The “Ryegrass, Italian plant response rating” value [9, 18] was 10, the “Ryegrass, Italian plant response rating” value [9, 19] was 35 and the “Plant response rating, Ryegrass, Italian” value [9] was 0. The “Plant response rating, Pigweed” value [10, 25] was 100, the “Pigweed plant response rating” value [10, 25] was 100 and the “Plant response rating (0 to 100), Barnyardgrass” value [11, 20] was 5. For the same molecule, the “Plant response rating, Barnyardgrass” value [11, 22] was 5, the “Plant response rating, Barnyardgrass” value [11, 24] was 5 and the “Plant response rating, Barnyardgrass” value [11, 23] was 5. The “Plant response rating (0 to 100), Oat, Wild” value [12, 20] was 0, the “Plant response rating, Oat, Wild” value [12, 21] was 10 and the “Plant response rating, Oat, Wild” value ([12]; Postemergence, 62 g ai/ha) was 15. The “Plant response rating (0 to 100), Corn” value [13, 20] was 5, the “Plant response rating, Corn” value [13, 22] was 15 and the “Plant response rating, Corn” value [13, 23] was 10. The “Ragweed plant response rating” value [14, 17] was 0, the “Ragweed plant response rating” value [14, 18] was 60 and the “Ragweed plant response rating” value [14, 19] was 85. The “Plant response rating, Ragweed” value [14] was 20, the “Plant response rating (0 to 100), Foxtail, Giant” value [15, 20] was 5 and the “Plant response rating, Foxtail, Giant” value [15, 22] was 10. For the same molecule, the “Plant response rating, Foxtail, Giant” value [15, 23] was 5, the “Blackgrass plant response rating” value [16, 17] was 0 and the “Blackgrass plant response rating” value [16, 18] was 5. The “Blackgrass plant response rating” value [16, 19] was 90 and the “Plant response rating, Blackgrass” value [16] was 50.
With `FCc1cccc(Oc2ncc(Cl)cn2)c1-n1cc(Br)cn1` [Compound 83] the “Pigweed plant response rating” value [1, 17] was 85, the “Pigweed plant response rating” value [1, 18] was 100 and the “Pigweed plant response rating” value [1, 19] was 100. For the same molecule, the “Plant response rating, Pigweed” value [1] was 100, the “Morningglory plant response rating” value [2, 17] was 0 and the “Morningglory plant response rating” value [2, 18] was 0. The “Morningglory plant response rating” value [2, 19] was 10, the “Plant response rating, Morningglory” value [2] was 0 and the “Soybean plant response rating” value [3, 17] was 5. For the same molecule, the “Soybean plant response rating” value [3, 18] was 60, the “Soybean plant response rating” value [3, 19] was 75 and the “Plant response rating, Soybean” value [3] was 10. The “Plant response rating (0 to 100), Nutsedge, Yellow” value ([4]; 125 g ai/ha, postemergence) was 5, the “Plant response rating, Nutsedge, Yellow” value [4, 26] was 0 and the “Plant response rating, Nutsedge, Yellow” value ([4]; Postemergence, 62 g ai/ha) was 5. The “Plant response rating (0 to 100), Wheat” value ([5]; 125 g ai/ha, postemergence) was 5, the “Plant response rating, Wheat” value [5, 26] was 0 and the “Plant response rating, Wheat” value ([5]; Postemergence, 62 g ai/ha) was 0. The “Chickweed plant response rating” value [6, 27] was 35, the “Plant response rating (0 to 100), Chickweed” value ([6]; 125 g ai/ha, postemergence) was 70 and the “Plant response rating, Chickweed” value [6, 24] was 40. The “Plant response rating, Chickweed” value [6, 23] was 60, the “Nutsedge, Yellow plant response rating” value [7, 17] was 0 and the “Nutsedge, Yellow plant response rating” value [7, 18] was 0. For the same molecule, the “Nutsedge, Yellow plant response rating” value [7, 19] was 15, the “Plant response rating, Nutsedge, Yellow” value [7] was 0 and the “Blackgrass plant response rating” value [8, 27] was 0. For the same molecule, the “Plant response rating (0 to 100), Blackgrass” value ([8]; 125 g ai/ha, postemergence) was 20, the “Plant response rating, Blackgrass” value [8, 24] was 5 and the “Plant response rating, Blackgrass” value [8, 23] was 5. For the same molecule, the “Ryegrass, Italian plant response rating” value [9, 17] was 0, the “Ryegrass, Italian plant response rating” value [9, 18] was 30 and the “Ryegrass, Italian plant response rating” value [9, 19] was 50. The “Plant response rating, Ryegrass, Italian” value [9] was 0, the “Plant response rating, Pigweed” value [10, 25] was 100 and the “Pigweed plant response rating” value ([10]; 0 to 100 scale, 0 no effect, 100 complete control, approx. 10 days) was 100. The “Barnyardgrass plant response rating” value [11, 27] was 5, the “Plant response rating (0 to 100), Barnyardgrass” value ([11]; 125 g ai/ha, postemergence) was 5 and the “Plant response rating, Barnyardgrass” value [11, 24] was 5. For the same molecule, the “Plant response rating, Barnyardgrass” value [11, 23] was 5, the “Plant response rating (0 to 100), Oat, Wild” value ([12]; 125 g ai/ha, postemergence) was 5 and the “Plant response rating, Oat, Wild” value [12, 26] was 0. The “Plant response rating, Oat, Wild” value ([12]; Postemergence, 62 g ai/ha) was 10, the “Corn plant response rating” value [13, 27] was 0 and the “Plant response rating (0 to 100), Corn” value ([13]; 125 g ai/ha, postemergence) was 10. For the same molecule, the “Plant response rating, Corn” value [13, 24] was 5, the “Plant response rating, Corn” value [13, 23] was 5 and the “Ragweed plant response rating” value [14, 17] was 0. For the same molecule, the “Ragweed plant response rating” value [14, 18] was 40, the “Ragweed plant response rating” value [14, 19] was 45 and the “Plant response rating, Ragweed” value [14] was 35. For the same molecule, the “Foxtail, Giant plant response rating” value [15, 27] was 35, the “Plant response rating (0 to 100), Foxtail, Giant” value ([15]; 125 g ai/ha, postemergence) was 40 and the “Plant response rating, Foxtail, Giant” value [15, 24] was 35. For the same molecule, the “Plant response rating, Foxtail, Giant” value [15, 23] was 10, the “Blackgrass plant response rating” value [16, 17] was 0 and the “Blackgrass plant response rating” value [16, 18] was 90. For the same molecule, the “Blackgrass plant response rating” value [16, 19] was 85 and the “Plant response rating, Blackgrass” value [16] was 5.

From patent publication US9695155B2, “Herbicidal substituted pyrimidinyloxy benzene compounds” (E. I. DU PONT DE NEMOURS AND COMPANY, priority 2013, dated 2017)
